Measurements from ChEMBL document CHEMBL3044921, “Synthesis, characterization, and SAR studies of new (1H-indol-3-yl)alkyl-3-(1H-indol-3-yl)propanamide derivatives as possible antimicrobial and antitubercular agents” (2013).
≈ marks a conversion by molar mass, not a printed value.

Tests used:
Talaromyces marneffei [1] = test: Antifungal activity against Talaromyces marneffei assessed as growth inhibition at […] to […] ug/ml after 3 to 4 days by agar well diffusion method; assay type: functional
Aspergillus fumigatus [2] = test: Antifungal activity against Aspergillus fumigatus NCIM 902 assessed as growth inhibition at […] to […] ug/ml after 3 to 4 days by agar well diffusion method; assay type: functional
Aspergillus flavus [3] = test: Antifungal activity against Aspergillus flavus NCIM 524 assessed as growth inhibition at […] to […] ug/ml after 3 to 4 days by agar well diffusion method; assay type: functional
Candida albicans [4] = test: Antifungal activity against Candida albicans assessed as growth inhibition after 3 to 4 days by serial plate dilution method; assay type: functional
[5] = system: Trichophyton mentagrophytes; test: Antifungal activity against Trichophyton mentagrophytes assessed as growth inhibition after 3 to 4 days by serial plate dilution method; assay type: functional
Talaromyces marneffei [6] = test: Antifungal activity against Talaromyces marneffei assessed as growth inhibition after 3 to 4 days by serial plate dilution method; assay type: functional
Aspergillus fumigatus [7] = test: Antifungal activity against Aspergillus fumigatus NCIM 902 assessed as growth inhibition after 3 to 4 days by serial plate dilution method; assay type: functional
Aspergillus flavus [8] = test: Antifungal activity against Aspergillus flavus NCIM 524 assessed as growth inhibition after 3 to 4 days by serial plate dilution method; assay type: functional
Streptococcus pyogenes [9] = assay type: functional
Description: Antibacterial activity against Streptococcus pyogenes assessed as growth inhibition at 1.56 to 25 ug/ml after 3 to 4 days by agar well diffusion method

Klebsiella pneumoniae [10] = assay type: functional
Description: Antibacterial activity against Klebsiella pneumoniae assessed as growth inhibition at 1.56 to 25 ug/ml after 3 to 4 days by agar well diffusion method

Pseudomonas aeruginosa [11] = assay type: functional, ATCC 27853
Description: Antibacterial activity against Pseudomonas aeruginosa ATCC 27853 assessed as growth inhibition at 1.56 to 25 ug/ml after 3 to 4 days by agar well diffusion method

Staphylococcus aureus [12] = assay type: functional, ATCC 25923
Description: Antibacterial activity against Staphylococcus aureus ATCC 25923 assessed as growth inhibition at 1.56 to 25 ug/ml after 3 to 4 days by agar well diffusion method

Streptococcus pyogenes [13] = test: Antibacterial activity against Streptococcus pyogenes assessed as growth inhibition after 16 to 18 hr by serial plate dilution method; assay type: functional
[14] = system: Mycolicibacterium fortuitum; test: Antitubercular activity against Mycobacterium fortuitum ATCC 19542 assessed as growth inhibition at 0.3125 to 5 ug/mL after 7 days by resazurin reduction test; assay type: functional; details: ATCC 19542, 168 h
[15] = system: Mycobacterium tuberculosis; test: Antitubercular activity against Mycobacterium tuberculosis H37Rv ATCC 27294 assessed as growth inhibition at 0.3125 to 5 ug/mL after 7 days by resazurin reduction test; assay type: functional; details: H37Rv ATCC 27294, 168 h
[16] = system: Mycolicibacterium smegmatis; test: Antitubercular activity against Mycobacterium smegmatis ATCC 19420 assessed as growth inhibition at 1 to 100 ug/mL after 7 days by resazurin reduction test; assay type: functional; details: ATCC 19420, 168 h
[17] = system: Mycolicibacterium fortuitum; test: Antitubercular activity against Mycobacterium fortuitum ATCC 19542 assessed as growth inhibition at 1 to 100 ug/mL after 7 days by resazurin reduction test; assay type: functional; details: ATCC 19542, 168 h
[18] = system: Mycobacterium tuberculosis; test: Antitubercular activity against Mycobacterium tuberculosis H37Rv ATCC 27294 assessed as growth inhibition at 1 to 100 ug/mL after 7 days by resazurin reduction test; assay type: functional; details: for MIC: Mycobacterium tuberculosis, H37Rv ATCC 27294, 168 h
Candida albicans [19] = test: Antifungal activity against Candida albicans assessed as growth inhibition at […] to […] ug/ml after 3 to 4 days by agar well diffusion method; assay type: functional
[20] = system: Trichophyton mentagrophytes; test: Antifungal activity against Trichophyton mentagrophytes assessed as growth inhibition at […] to […] ug/ml after 3 to 4 days by agar well diffusion method; assay type: functional
Klebsiella pneumoniae [21] = test: Antibacterial activity against Klebsiella pneumoniae assessed as growth inhibition after 16 to 18 hr by serial plate dilution method; assay type: functional
Pseudomonas aeruginosa [22] = test: Antibacterial activity against Pseudomonas aeruginosa ATCC 27853 assessed as growth inhibition after 16 to 18 hr by serial plate dilution method; assay type: functional
Escherichia coli [23] = test: Antibacterial activity against Escherichia coli […] assessed as growth inhibition after 16 to 18 hr by serial plate dilution method; assay type: functional
Staphylococcus aureus [24] = test: Antibacterial activity against Staphylococcus aureus ATCC 25923 assessed as growth inhibition after 16 to 18 hr by serial plate dilution method; assay type: functional
Escherichia coli [25] = assay type: functional, ATCC 24922
Description: Antibacterial activity against Escherichia coli ATCC 24922 assessed as growth inhibition at 1.56 to 25 ug/ml after 3 to 4 days by agar well diffusion method

Structure (SMILES)	diameter of the inhibition zone (DIZ) (Talaromyces marneffei [1]) [mm]	diameter of the inhibition zone (DIZ) (Aspergillus fumigatus [2]) [mm]	diameter of the inhibition zone (DIZ) (Aspergillus flavus [3]) [mm]	MIC (Candida albicans [4]) [µg/mL]	MIC [5] [µg/mL]	MIC (Talaromyces marneffei [6]) [µg/mL]	MIC (Aspergillus fumigatus [7]) [µg/mL]	MIC (Aspergillus flavus [8]) [µg/mL]	diameter of the inhibition zone (DIZ) (Streptococcus pyogenes [9]) [mm]	diameter of the inhibition zone (DIZ) (Klebsiella pneumoniae [10]) [mm]	diameter of the inhibition zone (DIZ) (Pseudomonas aeruginosa [11]) [mm]	diameter of the inhibition zone (DIZ) (Staphylococcus aureus [12]) [mm]	MIC (Streptococcus pyogenes [13]) [µg/mL]	MIC [16] [µg/mL]	MIC [17] [µg/mL]	growth inhibition (GI) [18] [%]	MIC [18] [µg/mL]	diameter of the inhibition zone (DIZ) (Candida albicans [19]) [mm]	diameter of the inhibition zone (DIZ) [20] [mm]	MIC (Klebsiella pneumoniae [21]) [µg/mL]	further results
Cn1cc(CNC(=O)CCc2c[nH]c3ccc(Cl)cc23)c2cc(Cl)ccc21	16	16	16	6.25 (≈ 15.6 µM)	6.25 (≈ 15.6 µM)	6.25 (≈ 15.6 µM)	6.25 (≈ 15.6 µM)	6.25 (≈ 15.6 µM)	16	11	<10	11	6.25 (≈ 15.6 µM)	10 (≈ 25 µM)	10 (≈ 25 µM)	90	> 100	16	16	12.5 (≈ 31.2 µM)	MIC [14]: 10 µg/mL (≈ 25 µM); MIC [15]: 1.25 µg/mL (≈ 3.12 µM); MIC (Pseudomonas aeruginosa [22]): 25 µg/mL (≈ 62.5 µM); MIC (Escherichia coli [23]): 12.5 µg/mL (≈ 31.2 µM); MIC (Staphylococcus aureus [24]): 12.5 µg/mL (≈ 31.2 µM); diameter of the inhibition zone (DIZ) (Escherichia coli [25]): 11 mm
Cc1c(CNC(=O)CCc2cn(C)c3ccc(Cl)cc23)c2cc(OC(F)(F)F)ccc2n1C	<10	16	<10	12.5 (≈ 26.2 µM)	6.25 (≈ 13.1 µM)	25 (≈ 52.3 µM)	6.25 (≈ 13.1 µM)	25 (≈ 52.3 µM)	<10	11	<10	11	25 (≈ 52.3 µM)	10 (≈ 20.9 µM)	> 100	<90	> 100	11	16	12.5 (≈ 26.2 µM)	MIC [15]: 5 µg/mL (≈ 10.5 µM); MIC (Pseudomonas aeruginosa [22]): 25 µg/mL (≈ 52.3 µM); MIC (Escherichia coli [23]): 12.5 µg/mL (≈ 26.2 µM); MIC (Staphylococcus aureus [24]): 12.5 µg/mL (≈ 26.2 µM); diameter of the inhibition zone (DIZ) (Escherichia coli [25]): 11 mm
Cc1c(CCCNC(=O)CCc2c[nH]c3ccc(Cl)cc23)c2cc(OC(F)(F)F)ccc2n1C	16	<10	16	12.5 (≈ 25.4 µM)	25 (≈ 50.8 µM)	6.25 (≈ 12.7 µM)	25 (≈ 50.8 µM)	6.25 (≈ 12.7 µM)	16	11	<10	11	6.25 (≈ 12.7 µM)	> 100	10 (≈ 20.3 µM)	90	10 (≈ 20.3 µM)	11	<10	12.5 (≈ 25.4 µM)	MIC [14]: 10 µg/mL (≈ 20.3 µM); MIC [15]: 10 µg/mL (≈ 20.3 µM); MIC (Pseudomonas aeruginosa [22]): 25 µg/mL (≈ 50.8 µM); MIC (Escherichia coli [23]): 12.5 µg/mL (≈ 25.4 µM); MIC (Staphylococcus aureus [24]): 12.5 µg/mL (≈ 25.4 µM); diameter of the inhibition zone (DIZ) (Escherichia coli [25]): 11 mm
Cn1cc(CCCNC(=O)CCc2c[nH]c3ccc(Cl)cc23)c2cc(Cl)ccc21	<10	16	<10	25 (≈ 58.4 µM)	6.25 (≈ 14.6 µM)	25 (≈ 58.4 µM)	6.25 (≈ 14.6 µM)	25 (≈ 58.4 µM)	<10	11	11	<10	25 (≈ 58.4 µM)	> 100	> 100	0	> 100	<10	16	12.5 (≈ 29.2 µM)	MIC (Pseudomonas aeruginosa [22]): 12.5 µg/mL (≈ 29.2 µM); MIC (Escherichia coli [23]): 12.5 µg/mL (≈ 29.2 µM); MIC (Staphylococcus aureus [24]): 25 µg/mL (≈ 58.4 µM); diameter of the inhibition zone (DIZ) (Escherichia coli [25]): 11 mm
O=C(CCc1c[nH]c2ccc(Cl)cc12)NCCCc1c[nH]c2ccc(OC(F)(F)F)cc12	<10	<10	<10	25 (≈ 53.9 µM)	25 (≈ 53.9 µM)	25 (≈ 53.9 µM)	25 (≈ 53.9 µM)	25 (≈ 53.9 µM)	11	16	16	16	12.5 (≈ 26.9 µM)	> 100	> 100	0	> 100	<10	<10	6.25 (≈ 13.5 µM)	MIC (Pseudomonas aeruginosa [22]): 6.25 µg/mL (≈ 13.5 µM); MIC (Escherichia coli [23]): 6.25 µg/mL (≈ 13.5 µM); MIC (Staphylococcus aureus [24]): 6.25 µg/mL (≈ 13.5 µM); diameter of the inhibition zone (DIZ) (Escherichia coli [25]): 16 mm
